Results published in patent publication US20160015725A1, “METHODS OF CONTROLLING TUMOR BIOENERGETICS NETWORKS” (THE WISTAR INSTITUTE OF ANATOMY AND BIOLOGY, priority 2012, published 2016).

Tests used:
[1] = system: AMP-activated kinase (AMPK); assay: AMPK phosphorylation in tumor cells, Western blotting; type: cell-based, human
Protocol: For Western blotting, protein lysates were prepared from the different cell types in RIPA Buffer (150 mM NaCl, 1.0% Triton X-100, 0.5% sodium deoxycholate, 0.1% SDS, 50 mM Tris, pH 8.0) containing EDTA-free Protease Inhibitor Cocktail (Roche) and Phosphatase Inhibitor Cocktail 2 and 3 (Sigma Aldrich). Equal amounts of protein lysates were separated by SDS gel electrophoresis, transferred to PVDF membranes and incubated with primary antibodies of various specificities. Protein bands were detected by chemiluminescence.

[2] = system: TRAMP (Transgenic Adenocarcinoma of the Mouse Prostate) mice; conditions: cited from earlier work
[3] = system: LN229 cells; assay: Oxygen consumption, fluorimetric assay; type: cell-based, human; conditions: tumor cells
Protocol: Treated tumor cells were analyzed using a fluorescence oxygen sensitive probe-based oxygen measuring kit (Luxcel Bioscience). For these experiments, LN229 cells were plated at increasing cell density (10-60×10^4/ml) on black body, clear bottom 96-well plates. The culture medium was replaced with 150 μl of phenol free DMEM containing 10% fetal bovine serum in the presence of 17-AAG or Gamitrinib (10 μM). Cells were further incubated with an oxygen-sensing probe (10 pmol/well), and 100 μl of heavy mineral oil was added to each well to seal the samples from ambient oxygen. After a 2 h incubation at 37° C., oxygen consumption was determined by quantifying the probe fluorescence signal in each well using a plate reader (Beckman Coulter) with excitation and emission wavelengths at 370 nm and 625 nm, respectively.

[4] = system: tumor cells; assay: Mitochondrial permeability transition; type: cell-based, human; conditions: non-cytotoxic concentrations
Protocol: (a) FIG. 18a is a bar graph showing percent viability of aliquots of the human tumor cell lines PC3, LNCaP, LN229, A549, or MCF-7 incubated with the indicated increasing concentrations of Gamitrinib for 5 hr and analyzed for changes in cell viability by direct cell counting. Mean±SD (n=2). (b) FIG. 18b are two parameter histogram dot plots of human glioblastoma LN229 cells left untreated (None) or incubated with 5 μM 17-AAG or Gamitrinib (Gam) for 5 hr and analyzed for changes in mitochondrial membrane potential by JC-1 staining and multiparametric flow cytometry. The mitochondrial uncoupler carbonyl cyanide 3-chlorophenylhydrazone (CCCP) was used as a control. The percentage of cells in each quadrant is indicated. FL1, green fluorescence; FL2, red fluorescence.

[5] = system: tumor cells; assay: Autophagy (LC3 conversion, LC3-CFP puncta); type: cell-based, human
Protocol: LN229 cells were transfected with various siRNAs, and mixed after 24 h with plasmid encoding cyan fluorescent protein (CFP) fused to human […] (LC3) cDNA in the presence of Lipofectamine 2000 Transfection Reagent (Invitrogen). After 48 h, transfected cells were fixed in 4% paraformaldehyde for 15 min at 37° C., washed, and examined by fluorescence microscopy (Nikon, E600). The numbers of CFP-LC3 punctate dots per cell was determined from three independent experiments. A minimum of 50 CFP-LC3-positive cells assessed from at least ten random fields per sample were counted in triplicate per each condition.
Samples were imaged using a Leica TCS SP2 confocal microscope. For determination of autophagy, cells under the various conditions tested were harvested after 12 h, and analyzed with an antibody to […] (LC3) by Western blotting.

[6] = system: PC3 cells; assay: ER stress luciferase-promoter reporter assay; type: cell-based, human; conditions: PC3, 20 h
Protocol: In another series of experiments, PC3 cells were transfected with control or Grp78-directed siRNA, and analyzed for cell viability after 24 h by an MTT assay. For promoter analysis, PC3 cells were plated in triplicate onto 48-well plates at 1.4×10^4 cells/well, and cotransfected with Firefly Luciferase-reporters for IRE1, ATF6, PERK or CHOP and a constitutive reporter (pTK-Renilla Luc) in a 10:1 ratio using X-tremeGENE reagent (Roche). After 24 h, cells were treated with vehicle, Gamitrinib, tunicamycin or 2-DG and analyzed after 20 h for Firefly and Renilla luciferase activity using a Dual Luciferase Reporter Assay System (Promega). Transfection of plasmid DNAs was carried out with lipofectamine 2000 (Invitrogen) according to published protocols. A PPIase-defective CypD H168Q mutant cDNA was generated by Quick-Change site-directed mutagenesis (Stratagene) using primers 5′-[…]-3′ (forward) and 5′-[…]-3′ (reverse) (mutated sequences are bolded). The inserted mutation (bolded) was confirmed by DNA sequencing, and cloned in a pcDNA3.0 expression vector (Invitrogen) for reconstitution experiments in CypD−/− MEFs.

[7] = system: TRAMP mice prostate; assay: Immunohistochemistry of TRAMP prostate tissues; type: in vivo, mouse; conditions: PIN lesions
Protocol: The preclinical studies to test the efficacy and safety of Gamitrinib in a genetic mouse model of prostate cancer in immunocompetent TRAMP (Transgenic Adenocarcinoma of the Mouse Prostate) mice have been described (Kang et al., 2011). In this model, Gamitrinib was given systemically (5 mg/kg i.p. with the schedule 3 d on/2 d off) to TRAMP mice starting at 21.9 weeks of age (group 1) or 14.7 weeks of age (group 2), for 3 weeks or 5 weeks, respectively. In the control group, TRAMP mice of 24 weeks of age received vehicle. At the end of the experiment, animals in the vehicle or Gamitrinib groups were sacrificed and analyzed for localized and metastatic prostate cancer of adenocarcinoma or neuroendocrine histologic type (Kang et al., 2011).
For analysis of patient-derived or TRAMP tissues, slides were microwaved for 35 min in EDTA solution. Sections (4-μm thick) were cut from all TMA blocks and TRAMP-derived prostatic tumors and stained with a rabbit polyclonal antibody to Grp78 (1:1000) for 30 min at 22° C. IHC was performed using a Ventana BenchMark Ultra autostainer (Ventana Medical Systems), with the ultraView Universal DAB Detection Kit (Ventana) for detection of antibody reactivity. All slides were counterstained with hematoxylin Immunoreactivity for Grp78 was evaluated by two pathologists (S.F. and S.B.) and independently scored for cytoplasmic localization. When discrepancies in scoring occurred, a consensus interpretation was reached after re-examination. The percentage of immunoreactive epithelial cells was determined and assigned to one of the following four categories: 0, (0%); 1, (1%-9%); 2, (10%-49%) and 3, (50%-100%). The intensity of immunostaining was scored as absent (0), mild (1), moderate (2) or strong (3). In the case of TMA, the two parameters were multiplied to generate a weighted score for each case that ranged from 0 to 9. Cases with weighted score 0 were defined as negative. Among AdCa samples in the series under investigation, 17 cases were negative for Grp78 expression, whereas 0 cases of SCC were Grp78-negative. […]

For `CO[C@H]1/C=C\C=C(/C)C(=O)NC2=CC(=O)C(NCCCCCC[P+](c3ccccc3)(c3ccccc3)c3ccccc3)=C(C[C@@H](C)C[C@H](OC)[C@H](O)[C@@H](C)/C=C(\C)[C@@H]1OC(N)=O)C2=O` [Gamitrinib], the “AMPK and eIF2α phosphorylation, combined with 2-DG” value ([1]; Gamitrinib combined with 2-DG) was “maximally stimulated AMPK and eIF2α phosphorylation”, the “AMPK phosphorylation, combination of metformin plus Gamitrinib” value ([1]; combination with metformin) was “did not further stimulate AMPK phosphorylation” and the “AMPK activation compared with metformin” value ([1]; tumor cells) was “more prominent than that induced by metformin”. For the same compound, the “AMPK activation remained sustained” value ([1]; tumor cells) was ≥ 9 h, the AMPK phosphorylation ([1]; tumor cells) was “concentration dependent phosphorylation of AMP-activated kinase (AMPK)” and the “onset of AMPK activation” value ([1]; tumor cells) was ≤ 30 min. The “total AMPK levels” value ([1]; tumor cells) was “not affected”, the “residual prostatic adenocarcinoma at end of experiment” value ([2]; 5 mg/kg i.p., 3 d on/2 d off) was “only one animal displayed a small residual area of prostatic adenocarcinoma” and the “Prostatic Intraepithelial Neoplasia (PIN)” value ([2]; systemic treatment) was “did not affect Prostatic Intraepithelial Neoplasia (PIN)”. For the same compound, the “primary and metastatic prostate cancer growth” value ([2]; systemic treatment) was “inhibited primary and metastatic prostate cancer growth”, the oxygen consumption [3] was “reduced” and the mitochondrial permeability transition [4] was “do not trigger mitochondrial permeability transition”. For the same compound, the “autophagy (LC3-II conversion)” value [5] was “strongly activated autophagy”, the “minimal CHOP promoter activity” value [6] was “transcriptionally induced” and the “transcriptional activation of response elements of IRE-1, ATF-6 and PERK” value [6] was “comparably induced transcriptional activation”. For the same compound, the GRP78 expression [7] was “upregulation of GRP78”, the “autophagy, LC3 conversion” value [7] was “induction of autophagy, i.e. LC3 conversion” and the “phosphorylated AMPK expression” value [7] was “increased expression of phosphorylated AMPK”.
